Target: T1, PD-1/PD-L1 interaction (PD-1-Ig / PD-L1-His) (Homo sapiens, UniProt Q9NZQ7)
T1 construct: hPDL1(18-239)-TVMV-His; TVMV protease site linker (C); made in house; host or cells: HEK293T
Assay: PD-1/PD-L1 Homogenous Time-Resolved Fluorescence (HTRF) binding assay
Conditions: IC50 range class; PD-L1-His 10 nM, PD-1-Ig 20 nM; read-out: Range or IC50
Summary of the method: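 Human PD-L1-His (10 nM final) was pre-incubated with inhibitor for 15 min, then PD-1-Ig (20 nM final) was added for a further 15 min in dPBS with 0.1% BSA and 0.05% Tween-20. Binding was detected by HTRF using Eu-cryptate anti-Ig (1 nM) and APC anti-His (20 nM).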

T1 sequence (Q9NZQ7 with tags, fused parts or gaps): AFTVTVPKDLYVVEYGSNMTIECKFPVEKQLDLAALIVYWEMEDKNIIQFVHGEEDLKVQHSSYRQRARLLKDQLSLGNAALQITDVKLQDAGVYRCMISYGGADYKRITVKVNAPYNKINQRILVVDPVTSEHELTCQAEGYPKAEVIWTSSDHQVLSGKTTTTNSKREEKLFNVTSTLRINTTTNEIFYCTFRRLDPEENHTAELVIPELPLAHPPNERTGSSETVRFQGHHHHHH

SMILES | IC50
COc1cc(OCc2cccc(-c3cccc(COc4cc(OC)c(CNCc5cncs5)cc4Cl)c3C)c2C)c(Cl)cc1CNCc1cncs1 [Example 5034, 1,1′-((((2,2′-dimethyl-[1,1′-biphenyl]-3,3′-diyl)bis(methylene))bis(oxy))bis(5-chloro-2-methoxy-4,1-phenylene))bis(N-(thiazol-5-ylmethyl)methanamine)] | 20.1 to 90 nM
COc1cc(OCc2cccc(-c3cccc(COc4cc(OC)c(CN(C)Cc5cc[nH]n5)cc4Cl)c3C)c2C)c(Cl)cc1CN(C)Cc1cc[nH]n1 [Example 5037, 1,1′-((((2,2′-dimethyl-[1,1′-biphenyl]-3,3′-diyl)bis(methylene))bis(oxy))bis(5-chloro-2-methoxy-4,1-phenylene))bis(N-((1H-pyrazol-3-yl)methyl)-N-methylmethanamine)] | 20.1 to 90 nM
COc1cc(OCc2cccc(-c3cccc(COc4cc(OC)c(CN(C)Cc5cncnc5)cc4Cl)c3C)c2C)c(Cl)cc1CN(C)Cc1cncnc1 [Example 5038, 1,1′-((((2,2′-dimethyl-[1,1′-biphenyl]-3,3′-diyl)bis(methylene))bis(oxy))bis(5-chloro-2-methoxy-4,1-phenylene))bis(N-methyl-N-(pyrimidin-5-ylmethyl)methanamine)] | 90.1 to 1000 nM
COc1cc(OCc2cccc(-c3cccc(COc4cc(OC)c(CN(C)Cc5cncs5)cc4Cl)c3C)c2C)c(Cl)cc1CN(C)Cc1cncs1 [Example 5039, 1,1′-((((2,2′-dimethyl-[1,1′-biphenyl]-3,3′-diyl)bis(methylene))bis(oxy))bis(5-chloro-2-methoxy-4,1-phenylene))bis(N-methyl-N-(thiazol-5-ylmethyl)methanamine)] | 90.1 to 1000 nM
Cc1cc(CN2CCCC[C@H]2C(=O)O)ccc1OCc1cccc(-c2cccc(COc3ccc(CN4CCCC[C@H]4C(=O)O)cc3C)c2C)c1C [Example 5500, (2S,2′S)-1,1′-(((((2,2′-dimethyl-[1,1′-biphenyl]-3,3′-diyl)bis(methylene))bis(oxy))bis(3-methyl-4,1-phenylene))bis(methylene))bis(piperidine-2-carboxylic acid)] | 90.1 to 1000 nM
N#Cc1cncc(COc2cc(OCc3cccc(-c4cccc(COc5cc(OCc6cncc(C#N)c6)c(CN6CCCCC6)cc5Cl)c4)c3)c(Cl)cc2CN2CCCCC2)c1 [Example 40060] | 20.1 to 90 nM
Cc1c(COc2cc(OCc3cncc(C#N)c3)c(CNC(C(=O)O)C(C)O)cc2Cl)cccc1-c1cccc(COc2cc(OCc3cncc(C#N)c3)c(CNC(C(=O)O)C(C)O)cc2Cl)c1C (centres unmarked) [Example 40100] | 0.04 to 20 nM
Cc1c(COc2cc(OCc3cncc(C#N)c3)c(CNC[C@H](O)CC(=O)O)cc2Cl)cccc1-c1cccc(COc2cc(OCc3cncc(C#N)c3)c(CNC[C@H](O)CC(=O)O)cc2Cl)c1C [Example 40110] | 0.04 to 20 nM
Cc1c(COc2cc(O)c(CN[C@@](C)(CO)C(=O)O)cc2Cl)cccc1-c1cccc(COc2cc(OCc3cncc(C#N)c3)c(CN[C@@](C)(CO)C(=O)O)cc2Cl)c1C [Example 40130] | 0.04 to 20 nM
C[C@@](CO)(NCc1cc(Cl)c(OCc2cccc(-c3cccc(COc4cc(OCc5cncc(C#N)c5)c(CN[C@@](C)(CO)C(=O)O)cc4Cl)c3Cl)c2Cl)cc1OCc1cncc(C#N)c1)C(=O)O [Example 40140] | 0.04 to 20 nM
COC(=O)[C@](C)(CO)NCc1cc(Cl)c(OCc2cccc(-c3cccc(COc4cc(OCc5cncc(C#N)c5)c(CN[C@@](C)(CO)C(=O)OC)cc4Cl)c3C)c2C)cc1OCc1cncc(C#N)c1 [Example 40150] | 20.1 to 90 nM
Cc1c(COc2cc(O)c(CN[C@@](C)(CO)C(=O)O)cc2Cl)cccc1-c1cccc(COc2cc(O)c(CN[C@@](C)(CO)C(=O)O)cc2Cl)c1C [Example 40160] | 0.04 to 20 nM
N#Cc1cncc(COc2cc(OCc3cccc(-c4cccc(COc5cc(OCc6cncc(C#N)c6)c(CNC(CCO)C(=O)O)cc5Cl)c4Cl)c3Cl)c(Cl)cc2CNC(CCO)C(=O)O)c1 (centres unmarked) [Example 40170] | 0.04 to 20 nM
Cc1c(COc2cc(OCC3CC3)c(CNC(CCO)C(=O)O)cc2Cl)cccc1-c1cccc(COc2cc(OCC3CC3)c(CNC(CCO)C(=O)O)cc2Cl)c1C (centres unmarked) [Example 40180] | 0.04 to 20 nM
N#Cc1cncc(COc2cc(OCc3cccc(-c4cccc(COc5cc(OCc6cncc(C#N)c6)c(CN[C@@H](CCO)C(=O)O)cc5Cl)c4Cl)c3Cl)c(Cl)cc2CN[C@@H](CCO)C(=O)O)c1 [Example 40190] | 0.04 to 20 nM

Further lines, results first:

IC50 | SMILES
0.04 to 20 nM | COc1cc(OCc2cccc(-c3cccc(COc4cc(OC)c(CNCc5cncnc5)cc4Cl)c3C)c2C)c(Cl)cc1CNCc1cncnc1 [Example 5033, 1,1′-((((2,2′-dimethyl-[1,1′-biphenyl]-3,3′-diyl)bis(methylene))bis(oxy))bis(5-chloro-2-methoxy-4,1-phenylene))bis(N-(pyrimidin-5-ylmethyl)methanamine)]
0.04 to 20 nM | COc1cc(OCc2cccc(-c3cccc(COc4cc(OC)c(CNCCC(=O)O)cc4Cl)c3C)c2C)c(Cl)cc1CNCCC(=O)O [Example 5035, 3,3′-((((((2,2′-dimethyl-[1,1′-biphenyl]-3,3′-diyl)bis(methylene))bis(oxy))bis(5-chloro-2-methoxy-4,1-phenylene))bis(methylene))bis(azanediyl))dipropionic acid]
0.04 to 20 nM | COc1cc(OCc2cccc(-c3cccc(COc4cc(OC)c(CN[C@@H](CCO)C(=O)O)cc4Cl)c3C)c2C)c(Cl)cc1CN[C@@H](CCO)C(=O)O [Example 5036, (2S,2′S)-2,2′-((((((2,2′-dimethyl-[1,1′-biphenyl]-3,3′-diyl)bis(methylene))bis(oxy))bis(5-chloro-2-methoxy-4,1-phenylene))bis(methylene))bis(azanediyl))bis(4-hydroxybutanoic acid)]
0.04 to 20 nM | Cc1cc(OCc2cccc(-c3cccc(COc4cc(C)c(CN5CCCC[C@H]5C(=O)O)cc4Cl)c3C)c2C)c(Cl)cc1CN1CCCC[C@H]1C(=O)O [Example 5501, (2S,2′S)-1,1′-(((((2,2′-dimethyl-[1,1′-biphenyl]-3,3′-diyl)bis(methylene))bis(oxy))bis(5-chloro-2-methyl-4,1-phenylene))bis(methylene))bis(piperidine-2-carboxylic acid)]
0.04 to 20 nM | Cc1cc(OCc2cccc(-c3cccc(COc4cc(C)c(CNCCC(=O)O)cc4Cl)c3C)c2C)c(Cl)cc1CNCCC(=O)O [Example 5502, 3,3′-((((((2,2′-dimethyl-[1,1′-biphenyl]-3,3′-diyl)bis(methylene))bis(oxy))bis(5-chloro-2-methyl-4,1-phenylene))bis(methylene))bis(azanediyl))dipropionic acid]
0.04 to 20 nM | Cc1cc(OCc2cccc(-c3cccc(COc4cc(OCc5cncc(C#N)c5)c(CN5CCCC[C@H]5C(=O)O)cc4Cl)c3C)c2C)c(Cl)cc1CN1CCCC[C@H]1C(=O)O [Example 5503, (S)-1-(4-((3′-((4-(((S)-2-carboxypiperidin-1-yl)methyl)-2-chloro-5-((5-cyanopyridin-3-yl)methoxy)phenoxy)methyl)-2,2′-dimethyl-[1,1′-biphenyl]-3-yl)methoxy)-5-chloro-2-methylbenzyl)piperidine-2-carboxylic acid]
0.04 to 20 nM | Cc1cc(OCc2cccc(-c3cccc(COc4cc(OCc5cncc(C#N)c5)c(CNCCC(=O)O)cc4Cl)c3C)c2C)c(Cl)cc1CNCCC(=O)O [Example 5504, 3-((4-((3′-((4-(((2-carboxyethyl)amino)methyl)-2-chloro-5-((5-cyanopyridin-3-yl)methoxy)phenoxy)methyl)-2,2′-dimethyl-[1,1′-biphenyl]-3-yl)methoxy)-5-chloro-2-methylbenzyl)amino)propanoic acid]
0.04 to 20 nM | Cc1cc(OCc2cccc(-c3cccc(COc4cc(OCc5cncc(C#N)c5)c(CN(C)[C@@H](CCO)C(=O)O)cc4Cl)c3C)c2C)c(Cl)cc1CN(C)[C@@H](CCO)C(=O)O [Example 5505, N-(4-((3′-((4-((((S)-1-carboxy-3-hydroxypropyl)(methyl)amino)methyl)-2-chloro-5-((5-cyanopyridin-3-yl)methoxy)phenoxy)methyl)-2,2′-dimethyl-[1,1′-biphenyl]-3-yl)methoxy)-5-chloro-2-methylbenzyl)-N-methyl-L-homoserine]
0.04 to 20 nM | Cc1cc(OCc2cccc(-c3cccc(COc4cc(OCc5cncc(C#N)c5)c(CN[C@@](C)(CO)C(=O)O)cc4Cl)c3C)c2C)c(Cl)cc1CN[C@@](C)(CO)C(=O)O [Example 5507, (S)-2-((4-((3′-((4-((((S)-2-carboxy-1-hydroxypropan-2-yl)amino)methyl)-2-chloro-5-((5-cyanopyridin-3-yl)methoxy)phenoxy)methyl)-2,2′-dimethyl-[1,1′-biphenyl]-3-yl)methoxy)-5-chloro-2-methylbenzyl)amino)-3-hydroxy-2-methylpropanoic acid]
0.04 to 20 nM | CC(CO)(CO)NCc1cc(Cl)c(OCc2cccc(-c3cccc(COc4cc(OCc5cncc(C#N)c5)c(CNC(C)(CO)CO)cc4Cl)c3)c2)cc1OCc1cncc(C#N)c1 [Example 40010]
0.04 to 20 nM | C[C@](CO)(NCc1cc(Cl)c(OCc2cccc(-c3cccc(COc4cc(OCc5cncc(C#N)c5)c(CN[C@@](C)(CO)C(=O)O)cc4Cl)c3)c2)cc1OCc1cncc(C#N)c1)C(=O)O [Example 40040]
0.04 to 20 nM | N#Cc1cncc(COc2cc(OCc3cccc(-c4cccc(COc5cc(OCc6cncc(C#N)c6)c(CN6CCCC[C@H]6C(=O)O)cc5Cl)c4)c3)c(Cl)cc2CN2CCCC[C@H]2C(=O)O)c1 [Example 40050]
0.04 to 20 nM | CCN(CC)CCCNCc1cc(Cl)c(OCc2cccc(-c3cccc(COc4cc(OCc5cncc(C#N)c5)c(CNCCCN(CC)CC)cc4Cl)c3)c2)cc1OCc1cncc(C#N)c1 [Example 40070]
0.04 to 20 nM | Cc1c(COc2cc(OCc3cncc(C#N)c3)c(CN[C@H](C(=O)O)C(C)(C)O)cc2Cl)cccc1-c1cccc(COc2cc(OCc3cncc(C#N)c3)c(CN[C@H](C(=O)O)C(C)(C)O)cc2Cl)c1C [Example 40090]
